Experimental findings from patent US10150763B2, “Histone deacetylase inhibitors and their use in therapy” (Karus Therapeutics Limited, priority 2012, dated 2018) are described below.

Where two headings read alike, the source gives them in different places.

One data set concerns the target HDAC1 (Homo sapiens (Human), UniProt Q13547). The data set can be described thus: HDAC inhibitory activity assay (as described in WO2008/062201), HDAC1. It counts as biochemical.
The target in the next data set is HDAC6 (Homo sapiens (Human), UniProt Q9UBN7). Kind of data set: HDAC inhibitory activity assay (as described in WO2008/062201), HDAC6. In kind it is biochemical.
For a further data set, the system named is A549. The data set can be described thus: In vitro cancer cell growth inhibition, A549. It counts as cell-based. Particulars: Homo sapiens. The source says:
(§1) In Vitro Cancer Cell Growth Inhibition Data for Compound A

A short description of data set [1]: Comparative mouse pharmacokinetics (oral bioavailability). Particulars: in vivo, read-out: Oral bioavailability, F %.
Another data set deals with PC-3. Kind of data set: In vitro cancer cell growth inhibition, PC-3. It counts as cell-based. Particulars: Homo sapiens; PC-3 cancer cell growth inhibition.
Excerpt: as §1

Setting [2] is: class symbol, read-out: IC50, HDAC1.
[3] abbreviates: class symbol, read-out: IC50, HDAC6.

HDAC6, sequence (Q9UBN7 whole entry, species assumed): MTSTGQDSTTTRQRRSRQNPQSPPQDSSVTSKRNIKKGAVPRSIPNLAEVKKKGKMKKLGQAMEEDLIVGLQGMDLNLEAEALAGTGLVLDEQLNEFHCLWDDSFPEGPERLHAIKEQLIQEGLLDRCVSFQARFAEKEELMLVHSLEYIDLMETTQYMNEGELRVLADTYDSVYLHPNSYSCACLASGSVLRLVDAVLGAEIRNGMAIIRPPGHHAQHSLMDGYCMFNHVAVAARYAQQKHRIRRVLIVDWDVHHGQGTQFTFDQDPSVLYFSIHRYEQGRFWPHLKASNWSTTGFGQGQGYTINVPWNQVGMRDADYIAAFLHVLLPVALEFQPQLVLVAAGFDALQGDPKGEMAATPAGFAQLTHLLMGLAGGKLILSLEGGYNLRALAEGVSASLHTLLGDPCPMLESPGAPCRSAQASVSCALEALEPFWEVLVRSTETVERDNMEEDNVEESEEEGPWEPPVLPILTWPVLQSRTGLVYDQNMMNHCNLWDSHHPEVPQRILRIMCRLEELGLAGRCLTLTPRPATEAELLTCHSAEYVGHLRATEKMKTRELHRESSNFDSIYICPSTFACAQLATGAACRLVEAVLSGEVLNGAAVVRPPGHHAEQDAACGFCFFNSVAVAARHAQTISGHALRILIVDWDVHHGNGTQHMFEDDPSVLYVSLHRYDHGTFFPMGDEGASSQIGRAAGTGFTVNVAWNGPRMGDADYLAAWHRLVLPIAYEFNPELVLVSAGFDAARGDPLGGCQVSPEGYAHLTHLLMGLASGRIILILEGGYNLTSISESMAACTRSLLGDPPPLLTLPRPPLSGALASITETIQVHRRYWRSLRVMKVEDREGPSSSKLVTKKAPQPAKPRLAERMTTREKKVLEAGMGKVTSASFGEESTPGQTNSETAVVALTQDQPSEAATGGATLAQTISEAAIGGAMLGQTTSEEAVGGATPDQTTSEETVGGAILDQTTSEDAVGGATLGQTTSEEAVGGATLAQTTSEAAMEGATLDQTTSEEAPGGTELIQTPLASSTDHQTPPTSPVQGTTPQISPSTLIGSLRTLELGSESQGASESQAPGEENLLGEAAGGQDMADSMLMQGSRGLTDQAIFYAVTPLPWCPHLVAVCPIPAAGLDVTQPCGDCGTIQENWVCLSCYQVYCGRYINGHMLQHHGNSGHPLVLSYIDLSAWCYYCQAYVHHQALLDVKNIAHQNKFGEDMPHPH
HDAC1, sequence (Q13547 whole entry, species assumed): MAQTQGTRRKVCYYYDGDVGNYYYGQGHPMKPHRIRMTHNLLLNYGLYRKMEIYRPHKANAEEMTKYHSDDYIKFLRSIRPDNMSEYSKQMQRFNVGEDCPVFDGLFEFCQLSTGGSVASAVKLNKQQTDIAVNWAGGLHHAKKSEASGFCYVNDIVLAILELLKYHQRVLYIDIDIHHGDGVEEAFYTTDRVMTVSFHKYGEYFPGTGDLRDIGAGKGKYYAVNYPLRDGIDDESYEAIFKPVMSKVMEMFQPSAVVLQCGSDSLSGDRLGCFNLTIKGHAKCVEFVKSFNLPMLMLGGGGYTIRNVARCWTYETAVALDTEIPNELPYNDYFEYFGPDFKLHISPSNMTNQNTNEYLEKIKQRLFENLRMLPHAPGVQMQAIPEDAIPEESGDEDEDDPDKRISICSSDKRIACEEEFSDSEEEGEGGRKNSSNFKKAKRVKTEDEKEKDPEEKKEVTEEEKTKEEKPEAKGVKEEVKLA

As a reminder, the IC50 is the midpoint of a concentration-inhibition curve. Consider `O=C(CCCCCCN(c1ccccn1)c1ncns1)NO` [Example O, N-Hydroxy-7-(pyridin-2-yl(1,2,4-thiadiazol-5-yl)amino)heptanamide], for which the IC50 at HDAC1 (setting [2]) was in the range of 500 to 1000 nM.
Consider `Cn1c(N(CCCCCCC(=O)NO)c2ccccn2)nc2ccccc21` [Example M, N-Hydroxy-7-((1-methyl-1H-benzo[d]imidazol-2-yl)(pyridin-2-yl)amino)heptanamide], for which the IC50 on HDAC1 (setting [2]) is 1000 to 10000 nM.
Take `Cc1nsc(N(CCCCCCCC(=O)NO)c2cc(-c3ccc(F)cc3)ccn2)n1` [Example FF, 8-((4-(4-Fluorophenyl)-pyridin-2-yl)(3-methyl-1,2,4-thiadiazol-5-yl)amino)-N-hydroxyoctanamide]: the IC50 is 1000 to 10000 nM on HDAC1 (setting [2]) and less than 500 nM on HDAC6 (setting [3]).
As to `Cc1noc(N(CCCCCCC(=O)NO)c2ccc(F)cn2)n1` [Example Q, 7-((5-Fluoropyridin-2-yl)(3-methyl-1,2,4-oxadiazol-5-yl)amino)-N-hydroxyheptanamide], the IC50 at HDAC1 (setting [2]) is more than 10000 nM; on HDAC6 (setting [3]) it was less than 500 nM.
For `Cn1c(N(CCCCCCCC(=O)NO)c2ccc(F)cn2)nc2ccccc21` [Example T, 8-((5-Fluoropyridin-2-yl)(1-methyl-1H-benzo[d]imidazol-2-yl)amino)-N-hydroxyoctanamide], the IC50 is 1000 to 10000 nM at HDAC1 (setting [2]) and less than 500 nM on HDAC6 (setting [3]).
For the molecule `O=C(CCCCCCN(c1ccc(F)cn1)c1nc(C(F)(F)F)ns1)NO` [Example GG, 7-((5-Fluoropyridin-2-yl)(3-(trifluoromethyl)1,2,4-thiadiazol-5-yl)amino)-N-hydroxyheptanamide], the IC50 at HDAC1 (setting [2]) was 500 to 1000 nM; at HDAC6 (setting [3]), less than 500 nM.
In the case of `O=C(CCCCCCN(c1ccccn1)c1nc(C(F)(F)F)ns1)NO` [Example AA], the IC50 on HDAC1 (setting [2]) lay within 1000 to 10000 nM.
As for `O=C(CCCCCCN(c1ccccn1)c1nccs1)NO` [Example KK, N-Hydroxy-7-(pyridin-2-yl(thiazol-2-yl)amino)heptanamide], on HDAC1 (setting [2]), the IC50 was 1000 to 10000 nM.
`Cc1noc(N(CCCCCCCC(=O)NO)c2ccc(F)cn2)n1` [Example R, 8-((5-Fluoropyridin-2-yl)(3-methyl-1,2,4-oxadiazol-5-yl)amino)-N-hydroxyoctanamide]: the figures for the IC50 on HDAC1 (setting [2]) and on HDAC6 (setting [3]) were 1000 to 10000 nM and less than 500 nM, respectively.
For the molecule `Cn1ccc(N(CCCCCCCC(=O)NO)c2cc(-c3ccc(F)cc3)ccn2)n1` [Example Z, 8-((4-(4-Fluorophenyl)pyridin-2-yl)(1-methyl-1H-pyrazol-3-yl)amino)-N-hydroxyoctanamide], the results for the IC50 at HDAC1 (setting [2]) and on HDAC6 (setting [3]) were more than 10000 nM and less than 500 nM, respectively.
Regarding `Cn1ccc(N(CCCCCCC(=O)NO)c2cc(-c3ccc(F)cc3)ccn2)n1` [Example Y, 7-((4-(4-Fluorophenyl)pyridin-2-yl)(1-methyl-1H-pyrazol-3-yl)amino)-N-hydroxyheptanamide], the IC50 on HDAC1 (setting [2]) and at HDAC6 (setting [3]) was less than 500 nM in each case.
Consider `O=C(CCCCCCCN(c1ccccn1)c1nccs1)NO` [Example LL, N-Hydroxy-8-(pyridin-2-yl(thiazol-2-yl)amino)octanamide], for which the IC50 at HDAC1 (setting [2]) lay in the range of 1000 to 10000 nM.
As for `O=C(CCCCCCCN(c1ccccn1)c1ncns1)NO` [Example P, N-Hydroxy-8-(pyridin-2-yl(1,2,4-thiadiazol-5-yl)amino)octanamide], the IC50 at HDAC1 (setting [2]) was in the range of 1000 to 10000 nM.
Regarding `Cc1nnc(N(CCCCCCCC(=O)NO)c2ccccn2)s1` [Example J, N-Hydroxy-8-((5-methyl-1,3,4-thiadiazol-2-yl)(pyridin-2-yl)amino)octanamide], the IC50 at HDAC1 (setting [2]) fell in the range of 1000 to 10000 nM.
`Cn1ccc(N(CCCCCCCC(=O)NO)c2ccc(F)cn2)n1` [Example V, 8-((5-Fluoropyridin-2-yl)(1-methyl-1H-pyrazol-3-yl)amino)-N-hydroxyoctanamide]: the IC50 is more than 10000 nM on HDAC1 (setting [2]) and less than 500 nM at HDAC6 (setting [3]).
Turning to `Cc1nsc(N(CCCCCCCC(=O)NO)c2ccc(F)cn2)n1` [Example DD, 8-((5-Fluoropyridin-2-yl)(3-methyl-1,2,4-thiadiazol-5-yl)amino)-N-hydroxyoctanamide], the IC50 is 1000 to 10000 nM on HDAC1 (setting [2]) and less than 500 nM on HDAC6 (setting [3]).
Regarding `Cc1nsc(N(CCCCCCC(=O)NO)c2ccc(F)cn2)n1` [Example CC, 7-((5-Fluoropyridin-2-yl)(3-methyl-1,2,4-thiadiazol-5-yl)amino)-N-hydroxyheptanamide], the IC50 on HDAC1 (setting [2]) was 500 to 1000 nM; on HDAC6 (setting [3]), less than 500 nM.
Turning to `O=C(CCCCCCCN(c1ccc(F)cn1)c1nc2ccccc2o1)NO` [Example X, 8-(Benzo[d]oxazol-2-yl(5-fluoropyridin-2-yl)amino)-N-hydroxyoctanamide], the results for the IC50 on HDAC1 (setting [2]) and on HDAC6 (setting [3]) were 1000 to 10000 nM and less than 500 nM, respectively.
As to `O=C(CCCCCCCN(c1ccc(F)cn1)c1nc(C(F)(F)F)ns1)NO` [Example HH, 8-((5-Fluoropyridin-2-yl)(3-(trifluoromethyl)1,2,4-thiadiazol-5-yl)amino)-N-hydroxyoctanamide], the IC50 at HDAC1 (setting [2]) was 1000 to 10000 nM; at HDAC6 (setting [3]) it was less than 500 nM.
Take `Cc1nsc(N(CCCCCCC(=O)NO)c2cc(-c3ccc(F)cc3)ccn2)n1` [Example EE, 7-((4-(4-Fluorophenyl)pyridin-2-yl)(3-methyl-1,2,4-thiadiazol-5-yl)amino)-N-hydroxyheptanamide]: the IC50 on HDAC1 (setting [2]) is 1000 to 10000 nM; at HDAC6 (setting [3]), less than 500 nM.
Take `O=C(CCCCCCCN(c1ccccn1)c1nncs1)NO` [Example H, N-Hydroxy-8-(pyridin-2-yl(1,3,4-thiadiazol-2-yl)amino)octanamide]: at HDAC1 (setting [2]), the IC50 is 1000 to 10000 nM.
As for `Cc1nnc(N(CCCCCCC(=O)NO)c2ccccn2)s1` [Example I, N-Hydroxy-7-((5-methyl-1,3,4-thiadiazol-2-yl)(pyridin-2-yl)amino)heptanamide], at HDAC1 (setting [2]), the IC50 lay within 500 to 1000 nM.
With `Cc1nsc(N(CCCCCCC(=O)NO)c2cccnc2)n1` [Example B, N-Hydroxy-7-[(3-methyl-1,2,4-thiadiazol-5-yl)(pyridin-3-yl)amino]heptanamide], the IC50 at HDAC1 (setting [2]) and on HDAC6 (setting [3]) was less than 500 nM in each case.
Consider `Cc1noc(N(CCCCCCCC(=O)NO)c2ccccn2)n1` [Example D, N-Hydroxy-8-((3-methyl-1,2,4-oxadiazol-5-yl)(pyridin-2-yl)amino)octanamide], for which the IC50 at HDAC1 (setting [2]) is 1000 to 10000 nM.
Turning to `Cn1c(N(CCCCCCC(=O)NO)c2ccc(F)cn2)nc2ccccc21` [Example S, 7-((5-Fluoropyridin-2-yl)(1-methyl-1H-benzo[d]imidazol-2-yl)amino)-N-hydroxyheptanamide], the IC50 was 500 to 1000 nM on HDAC1 (setting [2]) and less than 500 nM on HDAC6 (setting [3]).
On the same counts, the results for `O=C(CCCCCCN(c1ccc(F)cn1)c1nc2ccccc2o1)NO` [Example W, 7-(Benzo[d]oxazol-2-yl(5-fluoropyridin-2-yl)amino)-N-hydroxyheptanamide] are 1000 to 10000 nM and less than 500 nM.
Take `Cn1ccc(N(CCCCCCC(=O)NO)c2ccc(F)cn2)n1` [Example U, 7-((5-Fluoropyridin-2-yl)(1-methyl-1H-pyrazol-3-yl)amino)-N-hydroxyheptanamide]: the IC50 on HDAC1 (setting [2]) was 1000 to 10000 nM; on HDAC6 (setting [3]) it was less than 500 nM.
A word on the bioavailability: it is the share of a dose that reaches the circulation, judged against a reference dose that is usually intravenous. Consider `Cc1nsc(N(CCCCCCC(=O)NO)c2ccccn2)n1` [Example A, N-Hydroxy-7-[(3-methyl-1,2,4-thiadiazol-5-yl)(pyridin-2-yl)amino]heptanamide], for which the IC50 was 1.89 µM in the data set on A549; less than 500 nM on HDAC1; 226 nM on HDAC1 (numeric value, read-out: IC50, HDAC1); 2.32 µM in the data set on PC-3; less than 500 nM against HDAC6; 1.76 nM on HDAC6 (numeric value, read-out: IC50, HDAC6). For the same molecule, the bioavailability in data set [1] came to 19%.
